Consider 25 compounds from US20160229839A1, “Factor XIa Inhibitors” (Merck Sharp & Dohme Corp., priority 2013, published 2016).

As a reminder, the Ki is the dissociation constant of the complex between target and ligand, obtained from inhibition or displacement.

The target of the experiment is T1, purified human Factor XIa (Homo sapiens, UniProt P03951).
T1 construct: purified human Factor XIa; purchased Sekisui Diagnostics
In words: Factor XIa Assay (fluorogenic substrate Z-Gly-Pro-Arg-AFC). The following applies: purified human Factor XIa 40 pM; Z-Gly-Pro-Arg-AFC 100 μM; 50 mM HEPES pH 7.4; read-out: hFXIa Ki (nM), Factor XIa inhibition. The class given is biochemical. The procedure:
The effectiveness of compound of the present invention as inhibitors of Coagulation Factor XIa can be determined using a relevant purified serine protease, and an appropriate synthetic substrate. The rate of hydrolysis of the chromogenic or fluorogenic substrate by the relevant serine protease was measured both in the absence and presence of compounds of the present invention. Assays were conducted at room temperature or at 37° C. […] A decrease in the rate of fluorescence change in the presence of inhibitor is indicative of enzyme inhibition. Such methods are known to one skilled in the art. The results of this assay are expressed as the inhibitory constant, Ki.
Factor XIa determinations were made in 50 mM HEPES buffer at pH 7.4 containing 150 mM NaCl, 5 mM CaCl2, and 0.1% PEG 8000 (polyethylene glycol; J T Baker or Fisher Scientific). Determinations were made using purified human Factor XIa at a final concentration of 40 pM (Sekisui Diagnostics) and he synthetic substrate, Z-Gly-Pro-Arg-AFC, TFA salt (Sigma #C0980) at a concentration of 100 μM.
Activity assays were performed by diluting a stock solution of substrate at least tenfold to a final concentration ≦0.1 Km into a solution containing enzyme or enzyme equilibrated with inhibitor. Times required to achieve equilibration between enzyme and inhibitor were determined in control experiments. Initial velocities of product formation in the absence (Vo) or presence of inhibitor (Vi) were measured. Assuming competitive inhibition, and that unity is negligible compared Km/[S], [I]/e, and [I]/e (where [S], [I], and e respectively represent the total concentrations, of substrate, inhibitor and enzyme), the equilibrium constant (Ki) for dissociation of the inhibitor from the enzyme can be obtained from the dependence of Vo/Vi on [I] shown in the following equation.

Structures are written as SMILES. Some results are limits rather than exact numbers.

T1 sequence (P03951 388-625 limits assumed): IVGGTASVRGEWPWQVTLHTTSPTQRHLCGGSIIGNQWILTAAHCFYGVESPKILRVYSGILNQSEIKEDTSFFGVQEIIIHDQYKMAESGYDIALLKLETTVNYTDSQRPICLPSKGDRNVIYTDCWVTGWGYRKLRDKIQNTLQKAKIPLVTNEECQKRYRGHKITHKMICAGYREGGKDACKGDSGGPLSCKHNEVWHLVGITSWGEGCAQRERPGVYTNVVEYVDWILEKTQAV
T1 sequence (P03951 19-387 partner limits assumed): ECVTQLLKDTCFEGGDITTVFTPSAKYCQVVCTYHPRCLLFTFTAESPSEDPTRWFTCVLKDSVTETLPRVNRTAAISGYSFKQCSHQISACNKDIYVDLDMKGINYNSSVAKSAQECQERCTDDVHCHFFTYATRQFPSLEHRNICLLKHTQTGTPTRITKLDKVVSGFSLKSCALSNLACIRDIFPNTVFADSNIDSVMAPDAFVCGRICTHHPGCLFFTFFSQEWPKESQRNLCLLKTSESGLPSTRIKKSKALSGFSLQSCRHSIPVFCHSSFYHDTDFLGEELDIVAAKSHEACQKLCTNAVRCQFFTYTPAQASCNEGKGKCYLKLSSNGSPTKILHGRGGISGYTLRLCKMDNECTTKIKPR

As for `COC(=O)Nc1ccc(-c2c[nH]c(C3C(c4ccccc4)CCCN3C(=O)/C=C/c3cc(Cl)ccc3-n3cnnn3)n2)cc1` (stereo not shown) [Example 1-47, (E)-methyl (4-(2-(1-(3-(5-chloro-2-(1H-tetrazol-1-yl)phenyl)acryloyl)-3-phenylpiperidin-2-yl)-1H-imidazol-4-yl)phenyl)carbamate], the Ki was greater than 10000 nM.

Regarding `N#Cc1ccc(-c2c[nH]c(C3C(c4ccccc4)CCCN3C(=O)/C=C/c3cc(Cl)ccc3-n3cnnn3)n2)cc1` (stereo not shown) [Example 1-22, (E)-4-(2-(1-(3-(5-chloro-2-(1H-tetrazol-1-yl)phenyl)acryloyl)-3-phenylpiperidin-2-yl)-1H-imidazol-4-yl)benzonitrile], the Ki came to 3260 nM.

Consider `CC(C)(N)c1ccc(C(=O)N2CCCC(c3ccccc3)C2C(=O)Nc2ccc(C(=O)O)cc2)cc1` (stereo not shown) [Example 1-15, 4-(1-(4-(2-aminopropan-2-yl)benzoyl)-3-phenylpiperidine-2-carboxamido)benzoic acid], for which the inhibition constant (Ki) is greater than 10000 nM.

For the compound `O=C(O)c1ccc(NC(=O)C2C(c3ccc(OC(F)(F)F)cc3)CCCN2C(=O)/C=C/c2cc(Cl)ccc2-n2cnnn2)cc1` (stereo not shown) [Example 1-35, (E)-4-(1-(3-(5-chloro-2-(1H-tetrazol-1-yl)phenyl)acryloyl)-3-(4-(tifluoromethoxy)phenyl)piperidine-2-carboxamido)benzoic acid], the Ki was determined as 122 nM.

Take `O=C(Nc1ccc2[nH]ncc2c1)C1C(c2ccccc2)CCCN1C(=O)/C=C/c1cc(Cl)ccc1-n1cnnn1` (stereo not shown) [Example 1-60, (E)-1-(3-(5-chloro-2-(1H-tetrazol-1-yl)phenyl)acryloyl)-N-(1H-indazol-5-yl)-3-phenylpiperidine-2-carboxamide]: the Ki is 145 nM.

With `COC(=O)c1cccc(-c2c[nH]c(C3C(c4ccccc4)CCCN3C(=O)/C=C/c3cc(Cl)ccc3-n3cnnn3)n2)c1` (racemic) [Example 1-54, (E)-methyl 3-(2-(1-(3-(5-chloro-2-(1H-tetrazol-1-yl)phenyl)acryloyl)-3-phenylpiperidin-2-yl)-1H-imidazol-4-yl)benzoate], the Ki was greater than 10000 nM.

Regarding `COC(=O)Nc1ccc(-c2c[nH]c([C@@H]3[C@H](CO)CCCN3C(=O)/C=C/c3cc(Cl)ccc3-n3cnnn3)n2)cc1` [Example 1-67, methyl (4-(2-((2S,3R)-1-((E)-3-(5-chloro-2-(1H-tetrazol-1-yl)phenyl)acryloyl)-3-(hydroxymethyl)piperidin-2-yl)-1H-imidazol-4-yl)phenyl)carbamate], the Ki came out at 2640 nM.

`O=C(Nc1ccc2[nH]ncc2c1)C1C(c2ccccc2)CCCN1C(=O)/C=C/c1cc(Cl)ccc1-n1cnnn1` (stereo not shown) [Example 1-59, (E)-1-(3-(5-chloro-2-(1H-tetrazol-1-yl)phenyl)acryloyl)-N-(1H-indazol-5-yl)-3-phenylpiperidine-2-carboxamide]: the Ki was found to be 13.9 nM.

As to `NCc1ccc(C(=O)N2CCCC(c3ccccc3)C2C(=O)Nc2ccc(C(=O)O)cc2)cc1` (stereo not shown) [Example 1-20, (4-(2-((4-carboxyphenyl)carbamoyl)-3-phenylpiperidine-1-carbonyl)phenyl)methanaminium 2,2,2-trifluoroacetate], the Ki was determined as 627 nM.

`NC(=O)c1ccc(C2CCCN(C(=O)/C=C/c3cc(Cl)ccc3-n3cnnn3)C2C(=O)Nc2ccc(C(=O)O)cc2)cc1` (stereo not shown) [Example 1-36, (E)-4-(3-(4-carbamoylphenyl)-1-(3-(5-chloro-2-(1H-tetrazol-1-yl)phenyl)acryloyl)piperidine-2-carboxamido)benzoic acid]: the Ki worked out at 36.2 nM.

For the compound `O=C(/C=C/c1cc(Cl)ccc1-n1cnnn1)N1CCCC(c2ccccc2)C1c1nc(-c2ccc3[nH]c(=O)oc3c2)c[nH]1` (stereo not shown) [Example 1-53, (E)-6-(2-(1-(3-(5-chloro-2-(1H-tetrazol-1-yl)phenyl)acryloyl)-3-phenylpiperidin-2-yl)-1H-imidazol-4-yl)benzo[d]oxazol-2(3H)-one], the Ki was greater than 10000 nM.

On to `CCCC(=O)Nc1cc(NC(=O)OC)ccc1-c1c[nH]c(C2C(c3ccccc3)CCCN2C(=O)/C=C/c2cc(Cl)ccc2-n2cnnn2)n1` (stereo not shown) [Example 1-51, (E)-methyl (3-butyramido-4-(2-(1-(3-(5-chloro-2-(1H-tetrazol-1-yl)phenyl)acryloyl)-3-phenylpiperidin-2-yl)-1H-imidazol-4-yl)phenyl)carbamate], for which the Ki is greater than 10000 nM.

For `O=C(O)c1ccc(NC(=O)[C@@H]2[C@H](c3ccccc3)CCCN2C(=O)/C=C/c2cc(Cl)ccc2-n2cnnn2)cc1` (racemic) [Example 1-2, (E)-1-(2-(3-(2-((4-carboxyphenyl)carbamoyl)-3-phenylpiperidin-1-yl)-3-oxoprop-1-en-1-yl)-4-chlorophenyl)-1H-tetrazol-2-ium 2,2,2-trifluoroacetate], the inhibitory constant (Ki) is 80.9 nM.

As to `COC(=O)Nc1ccc(-c2nc([C@@H]3[C@H](c4ccccc4)CCCN3C(=O)/C=C/c3cc(Cl)ccc3-n3cnnn3)[nH]c2Cl)cc1` [Example 1-55, Methyl (4-(5-chloro-2-((2S,3S)-1-((E)-3-(5-chloro-2-(1H-tetrazol-1-yl)phenyl)acryloyl)-3-phenylpiperidin-2-yl)-1H-imidazol-4-yl)phenyl)carbamate], the Ki turned out to be 31.5 nM.

In the case of `O=C(O)C1CCC(NC(=O)C2C(C3CCCCC3)CCCN2C(=O)/C=C/c2cc(Cl)ccc2-n2cnnn2)CC1` (stereo not shown) [Example 1-6, 2,2,2-trifluoroacetate], the Ki was 5250 nM.

As to `O=C1Cc2cc(-c3cnc([C@H]4[C@@H](c5ccccc5)CCCN4C(=O)/C=C/c4cc(Cl)ccc4-n4cnnn4)[nH]3)ccc2N1` [Example 1-62, 2-((2R,3R)-1-((E)-3-(5-chloro-2-(1H-tetrazol-1-yl)phenyl)acryloyl)-3-phenylpiperidin-2-yl)-5-(2-oxoindolin-5-yl)-1H-imidazol-3-ium 2,2,2-trifluoroacetate], the inhibitory constant (Ki) was greater than 10000 nM.

On to `O=C(CCc1cc(Cl)ccc1-n1cnnn1)N1CCCC(c2ccccc2)C1c1nc(-c2ccc(Cl)cc2)c[nH]1` (stereo not shown) [Example 1-23, 3-(5-chloro-2-(1H-tetrazol-1-yl)phenyl)-1-(2-(4-(4-chlorophenyl)-1H-imidazol-2-yl)-3-phenylpiperidin-1-yl)propan-1-one], for which the Ki is greater than 10000 nM.

For the compound `O=C(O)c1ccc(-c2c[nH]c(C3C(c4ccccc4)CCCN3C(=O)/C=C/c3cc(Cl)ccc3-n3cnnn3)n2)cc1` (stereo not shown) [Example 1-45, (E)-4-(2-(1-(3-(5-chloro-2-(1H-tetrazol-1-yl)phenyl)acryloyl)-3-phenylpiperidin-2-yl)-1H-imidazol-4-yl)benzoic acid], the Ki worked out at 2820 nM.

As to `NCC1CCC(C(=O)N2CCCC(c3ccccc3)C2C(=O)Nc2ccc(C(=O)O)cc2)CC1` (stereo not shown) [Example 1-39, (4-(2-((4-carboxyphenyl)carbamoyl)-3-phenylpiperidine-1-carbonyl)cyclohexyl)methanaminium 2,2,2-trifluoroacetate], the Ki came to 45.6 nM.

Turning to `O=C(O)c1ccc(NC(=O)C2C(C3CCCCC3)CCCN2C(=O)/C=C/c2cc(Cl)ccc2-n2cnnn2)cc1` (stereo not shown) [Example 1-5, (E)-1-(2-(3-(2-((4-carboxyphenyl)carbamoyl)-3-cyclohexylpiperidin-1-yl)-3-oxoprop-1-en-1-yl)-4-chlorophenyl)-1H-tetrazol-2-ium 2,2,2-trifluoroacetate], the Ki is 44 nM.

Take `COC(=O)Nc1ccc(-c2nc(C3C(c4ccccc4)CCCN3C(=O)/C=C/c3cc(Cl)ccc3-n3cnnn3)[nH]c2C)cc1` (stereo not shown) [Example 1-52, (E)-methyl (4-(2-(1-(3-(5-chloro-2-(1H-tetrazol-1-yl)phenyl)acryloyl)-3-phenylpiperidin-2-yl)-5-methyl-1H-imidazol-4-yl)phenyl)carbamate]: the Ki was 95.8 nM.

Turning to `O=C(O)C1CCC(NC(=O)C2C(c3ccc(F)cc3F)CCCN2C(=O)/C=C/c2cc(Cl)ccc2-n2cnnn2)CC1` (stereo not shown) [Example 1-19, ammonium (E)-4-(1-(3-(5-chloro-2-(1H-tetrazol-1-yl)phenyl)acryloyl)-3-(2,4-difluorophenyl)piperidine-2-carboxamido)cyclohexanecarboxylate], the Ki was greater than 10000 nM.

In the case of `N=C(N)N1CCC(C(=O)N2CCCC(c3ccccc3)C2C(=O)Nc2ccc(C(=O)O)cc2)CC1` (stereo not shown) [Example 1-8, 4-(1-(1-carbamimidoylpiperidine-4-carbonyl)-3-phenylpiperidine-2-carboxamido)benzoic acid], the Ki is 15.4 nM.

Turning to `O=C(/C=C/c1cc(Cl)ccc1-n1cnnn1)N1CCCC(c2ccccc2)C1c1nc(-c2ccc(F)cc2)c[nH]1` (stereo not shown) [Example 1-13, (E)-3-(5-chloro-2-(1H-tetrazol-1-yl)phenyl)-1-(2-(4-(4-fluorophenyl)-1H-imidazol-2-yl)-3-phenylpiperidin-1-yl)prop-2-en-1-one], the Ki is greater than 10000 nM.

For `O=C(NC12CCC(C(=O)O)(CC1)CC2)[C@@H]1[C@H](c2ccccc2)CCCN1C(=O)/C=C/c1cc(Cl)ccc1-n1cnnn1` [Example 1-72, 4-((2S,3S)-1-((E)-3-(5-chloro-2-(1H-tetrazol-1-yl)phenyl)acryloyl)-3-phenylpiperidine-2-carboxamido)bicyclo[2.2.2]octane-1-carboxylic acid], the Ki amounted to 63.6 nM.
